Where “and” joins values, the source holds several entries; their conditions need not be identical. Identical values can stand only once. Values belong to the compound of their own block, whether it stands above or below them. Residues, ends and D or L forms follow the SMILES beside them. *: point of attachment. Cbz = O=C(OCc1ccccc1)*
Key:
[1] = biological target: HIF-1α (Homo sapiens, UniProt Q16665); test: Immunoblot of HIF-1α accumulation in MIO-M1 cells cultured in hypoxia; assay type: cell-based; design: endogenous in cells; host or cells: MIO-M1; conditions: MIO-M1, hypoxia 4 hours; MG-132 10 μM, bortezomib 10 μM, bafilomycin 10 nM
Description: (§1) MIO-M1, HUVECs, and ARPE19 cells were cultured in DMEM with 10% (vol/vol) FBS (Quality Biological) and 1% penicillin/streptomycin (Cellgro). A hypoxic chamber (Coy Laboratory Product Inc.; Two Glove Model) with 5% CO2, 94% N2, and 1% O2 gas concentration at 37°C was used to culture hypoxic cells. The control cells were cultured in an incubator maintained at 37°C, with 21% O2 and 5% CO2. […] Aflibercept was obtained from the Johns Hopkins University Pharmacy.
(§2) Immunoblot assays. Cells, neurosensory retina, and D120 retinal organoid lysates were subjected
(§3) to 4–15% gradient SDS/PAGE (Invitrogen). Immunoblot (Western blot or WB) assays were
(§4) performed as previously described (1). […]

[2] = biological target: HIF-2α (Homo sapiens, UniProt Q99814); test: Immunoblot of HIF-2α accumulation in MIO-M1 cells cultured in hypoxia; assay type: cell-based; design: endogenous in cells; host or cells: MIO-M1; conditions: MIO-M1, hypoxia 4 hours; MG-132
Description: as §1, §2, §3, §4

[3] = tested on: OIR mice; test: Retinal NV in the oxygen-induced retinopathy (OIR) mouse model; assay type: in vivo; conditions: for OIR NV%: Figure 14D
Source text: To characterize the contribution of these other HIF-regulated angiogenic factors to the promotion of ischemia-driven retinal NV in vivo, we used the classic oxygen-induced retinopathy (OIR) model characterized by Smith and colleagues ([35]). In stage 1 of this model, P7 pups are exposed to hyperoxia (75% O2) for 5 consecutive days (P7–P12), resulting in obliteration of the posterior retinal vasculature. In stage 2, pups (at P12) are returned to room air (21% O2). The resulting relative ischemia promotes the expression of angiogenic mediators that stimulate the development of retinal NV (peaking at P17; Figure 2A). […]
(§5) Animal studies. Eight-week-old pathogen-free female C57BL/6 mice were obtained from The Jackson Laboratory (JAX). Timed pregnant C57BL/6 mice were obtained from Charles River Laboratories. Mice heterozygous for HIF-1α have been previously described (2). Mice heterozygous for HIF-2α (strain number: 003266; common name: EPAS1 KO) were purchased […]
(§6) OIR mouse model. OIR experiments were performed as previously described (1, 3). Briefly, C57BL/6 mice were placed in 75% O2 on P7. On P12, the mice were returned to room air and were […]
(§7) (or vehicle) by intravitreal injection. Mice with body weight less than 6 g at P17 were excluded […]
(§8) from analysis. Data were collected from both males and females and the results were combined since there was no apparent difference between sexes. Representative images for selected time points from a minimum of three independent experiments are shown. Data from 3-8 pups were obtained at each time point. […]
(§9) Intraperitoneal (IP) injections. […]
(§10) intraperitoneally using an insulin syringe in OIR pups. […]
(§11) the peritoneal cavity of neonatal C57BL/6 mice and STZ mice at indicated times, and the retinal vasculature and lysates for WB and qPCR were assessed at P17.
(§12) Intraocular injections. Intravitreal injections were performed with a PLI-100A Pico-liter Microinjector (Warner Instruments, Harvard Bioscience) using pulled-glass micropipettes. Each micropipette was calibrated to deliver a 1 μl volume on depression of a foot switch. The mice were anesthetized with a ketamine (100 mg/kg) and xylazine (5mg/kg) mixture, and under a dissecting microscope, the sharpened tip of the micropipette was passed through the sclera just posterior to the limbus into the vitreous cavity and the foot switch was depressed, which caused fluid to […]
penetrate into the vitreous space. […]
mice for vascular permeability test, retinal vasculature, and lysates for WB and qPCR analysis.
Immunoﬂuorescence assays. Details for antibodies are provided in Supplemental Table 1.
Immunofluorescence assays in retinal organoids and mouse retinal tissues were performed as previously described (4). Briefly, mice were sacrificed using CO2 asphyxiation, and the eyes were enucleated and fixed with a solution of 4% paraformaldehyde in PBS (Thermo Scientific™) for two hours at RT, followed by washing with PBS for 10 minutes in a shaker. Retinas were isolated and incubated in 0.5% BSA solution overnight at 4 °C. Retinas were then washed with PBS 3 times for 10 minutes in the shaker and stained with isolectin B4 (Invitrogen; 1:200 dilution in PBS) overnight at 4 °C. After washing 3 times for 10 minutes each in the shaker, the retinas were mounted. Images were captured with Zeiss fluorescent microscope. Eight fields per eye (2 fields per petal) including area of neovascularization were selected and fluorescence intensity was measured by ImageJ software. […]
The eyes were enucleated and immediately immersed in 4% (wt/vol) paraformaldehyde for 2 hours at room temperature. Retinas were isolated and wholemounts prepared on clean glass slides and mounted vitreous side up under coverslips with antifade medium (Vectashield; Vector Laboratories, Burlingame, CA). Images were captured by Zeiss fluorescent microscope or confocal microscopy and fluorescence was quantified by the image J software (National Institutes

[4] = tested on: STZ-induced diabetic mice; test: Vascular permeability by Evans blue tracer method in STZ mice; assay type: in vivo, mouse; conditions: digoxin treatment, mice hyperglycemic for 6 months
Description: (§13) STZ-induced diabetes mouse model. 8-to-10 week-old male mice received an IP injection of STZ at 40 mg/kg of body weight in 0.1M of citrate buffer (pH 4.5) for 5 consecutive days. Normal chow and 10% sucrose water were provided during this period. 10% sucrose was discontinued and replaced with regular water on experimental day 6. […]
Intraocular injections. Intravitreal injections were performed with a PLI-100A Pico-liter Microinjector (Warner Instruments, Harvard Bioscience) using pulled-glass micropipettes. Each micropipette was calibrated to deliver a 1 μl volume on depression of a foot switch. […]
Images were captured with Zeiss fluorescent microscope. Eight fields per eye (2 fields per petal) including area of neovascularization were selected and fluorescence intensity was measured by ImageJ software. […]
The eyes were enucleated and immediately immersed in 4% (wt/vol) paraformaldehyde for 2 hours at room temperature. […] Images were captured by Zeiss fluorescent microscope or confocal microscopy and fluorescence was quantified by the image J software (National Institutes […]
of Health, Bethesda, MD). Blinded quantification of the number of leaking vessels was performed by manual counting of major leakage from capillaries from retinas of each group. […] Random fields were chosen from retinas where leakages were absent to determine baseline fluorescence that arise from capillaries. […]

[5] = tested on: HIF-regulated vasoactive mediators; test: mRNA expression of HIF-regulated vasoactive mediators in retina of STZ-induced diabetic mice (qPCR); assay type: in vivo, mouse
Description: (§14) Reverse transcription and quantitative real-time PCR. Total RNA was isolated from cultured cells or retinas with PureLinkTM RNA Mini Kit (Invitrogen #12183025), and cDNA was prepared with MuLV Reverse Transcriptase (Applied Biosystems). Quantitative real-time PCR was performed with Power SYBR Green PCR Master Mix (Applied Biosystems) and MyiQ Real-Time PCR Detection System (Bio-Rad). Normalization was done using cyclophilin A for mouse tissue and human cell lines. Primers are listed in Supplemental Table 2. […]
as §13, with “6. Blood glucose was measured on experimental day 28 after 16 hours fasting and mice with blood glucose level > 250 mg/dL were considered” for “6.”
as §9

[6] = tested on: HIF-regulated angiogenic mediators; test: mRNA expression of HIF-regulated vasoactive mediators in OIR mouse retina (qPCR); assay type: in vivo
Description: as §14, §5, §6, §7, §8, §9, §10, §11, §12

[7] = STZ mice + Digoxin, control about 1, replicates, Figure 4F
[8] = OIR mice P17, Digoxin i.p. 2mg/kg at P12, NON-OIR about 1, replicates, Figure 2C, 2 mg/kg
[9] = digoxin 2 mg/kg i.p. at P12, P17

HIF-1α, sequence (Q16665 whole entry): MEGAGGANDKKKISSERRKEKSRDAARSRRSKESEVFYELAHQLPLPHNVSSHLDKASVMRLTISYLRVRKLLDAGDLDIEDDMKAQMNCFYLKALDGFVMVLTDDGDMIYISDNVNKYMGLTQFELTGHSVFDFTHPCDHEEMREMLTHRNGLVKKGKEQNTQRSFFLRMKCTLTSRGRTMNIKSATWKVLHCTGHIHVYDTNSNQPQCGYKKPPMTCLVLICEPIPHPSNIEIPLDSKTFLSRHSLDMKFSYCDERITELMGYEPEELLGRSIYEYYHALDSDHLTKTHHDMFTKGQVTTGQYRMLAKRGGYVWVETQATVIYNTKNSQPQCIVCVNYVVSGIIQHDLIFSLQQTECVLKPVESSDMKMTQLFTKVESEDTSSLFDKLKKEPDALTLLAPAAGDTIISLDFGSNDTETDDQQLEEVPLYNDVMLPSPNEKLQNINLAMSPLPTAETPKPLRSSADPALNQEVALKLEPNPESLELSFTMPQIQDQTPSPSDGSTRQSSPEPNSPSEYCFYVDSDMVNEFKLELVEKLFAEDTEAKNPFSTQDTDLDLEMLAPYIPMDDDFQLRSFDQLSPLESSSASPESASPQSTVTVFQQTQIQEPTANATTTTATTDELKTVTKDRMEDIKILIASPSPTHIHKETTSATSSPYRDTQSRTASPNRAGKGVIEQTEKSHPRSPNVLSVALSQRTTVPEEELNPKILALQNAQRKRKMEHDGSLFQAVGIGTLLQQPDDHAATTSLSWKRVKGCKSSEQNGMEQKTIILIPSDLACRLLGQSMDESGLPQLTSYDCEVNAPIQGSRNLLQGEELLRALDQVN
HIF-2α, sequence (Q99814 whole entry): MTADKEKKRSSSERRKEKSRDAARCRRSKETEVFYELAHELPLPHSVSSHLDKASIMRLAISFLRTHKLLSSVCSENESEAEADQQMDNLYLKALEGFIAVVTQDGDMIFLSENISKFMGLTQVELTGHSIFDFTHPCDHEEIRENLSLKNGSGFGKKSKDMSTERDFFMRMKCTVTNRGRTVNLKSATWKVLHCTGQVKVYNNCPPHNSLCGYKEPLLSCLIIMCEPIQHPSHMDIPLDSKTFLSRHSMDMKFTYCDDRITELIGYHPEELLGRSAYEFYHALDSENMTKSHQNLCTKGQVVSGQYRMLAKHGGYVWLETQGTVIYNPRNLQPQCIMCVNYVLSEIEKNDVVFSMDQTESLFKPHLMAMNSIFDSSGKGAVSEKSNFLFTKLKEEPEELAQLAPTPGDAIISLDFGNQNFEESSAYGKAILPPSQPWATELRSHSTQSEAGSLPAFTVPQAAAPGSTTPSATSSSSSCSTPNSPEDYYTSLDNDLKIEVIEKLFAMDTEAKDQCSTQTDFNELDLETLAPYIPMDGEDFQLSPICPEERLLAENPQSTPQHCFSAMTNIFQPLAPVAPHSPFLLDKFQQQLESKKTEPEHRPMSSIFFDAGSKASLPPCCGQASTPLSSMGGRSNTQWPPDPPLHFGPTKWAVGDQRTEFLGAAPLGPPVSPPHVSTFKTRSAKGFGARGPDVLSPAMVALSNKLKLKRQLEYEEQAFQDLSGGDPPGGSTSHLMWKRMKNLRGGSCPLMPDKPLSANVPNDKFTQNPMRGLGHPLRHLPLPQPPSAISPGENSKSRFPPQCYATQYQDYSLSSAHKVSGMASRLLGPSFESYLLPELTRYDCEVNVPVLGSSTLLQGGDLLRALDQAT

Compound: CC(C)C[C@@H](C=O)NC(=O)[C@H](CC(C)C)NC(=O)[C@H](CC(C)C)NC(=O)OCc1ccccc1 [MG-132, reference compound] (Cbz-Leu-Leu-Leu-aldehyde)
effect of pretreatment on 32-134D inhibition of HIF-1α accumulation [1]: prevented the ability of 32-134D to block HIF-1α and HIF-2α protein accumulation
effect of pretreatment on 32-134D inhibition of HIF-2α accumulation [2]: prevented the ability of 32-134D to block HIF-1α and HIF-2α protein accumulation

Compound: CO/C1=C\C(C)=C\[C@@H](C)[C@@H](O)[C@@H](C)C/C(C)=C/C=C/[C@H](OC)[C@@H]([C@@H](C)[C@@H](O)[C@H](C)[C@@]2(O)C[C@@H](O)[C@H](C)[C@@H](C(C)C)O2)OC1=O [bafilomycin, reference compound]
effect of pretreatment on 32-134D inhibition of HIF-1α accumulation [1]: did not prevent 32-134D from inhibiting HIF-1α accumulation

effect of pretreatment on 32-134D inhibition of HIF-1α accumulation [1]: corroborated
Compound: CC(C)C[C@H](NC(=O)[C@H](Cc1ccccc1)NC(=O)c1cnccn1)B(O)O [bortezomib, reference compound]

Compound: C[C@H]1O[C@@H](O[C@H]2[C@@H](O)C[C@H](O[C@H]3[C@@H](O)C[C@H](O[C@H]4CC[C@@]5(C)[C@H](CC[C@@H]6[C@@H]5C[C@@H](O)[C@]5(C)[C@@H](C7=CC(=O)OC7)CC[C@]65O)C4)O[C@@H]3C)O[C@@H]2C)C[C@H](O)[C@@H]1O [digoxin, reference compound]
neovascular area (%) ([3]; OIR mice at P17, single i.p. digoxin 2 mg/kg at P12, individual values, Figure 2A): 0.786% and 0.8973% and 1.637% and 0.108% and 0.7093% and 1.719%
retinal NV in the OIR model (in words) ([3]; digoxin 2 mg/kg single i.p. at P12, read at P17): prevented retinal NV
vascular permeability in STZ mice (in words) [4]: decreased vascular permeability
Angptl4 mRNA [5, 7]: 0.6214 and 1.778 and 1.462
Vegfa mRNA [5, 7]: 0.79 and 0.8827 and 0.5987
Vegf and Angptl4 mRNA expression in STZ mice (in words) ([5]; digoxin treatment): decrease in Vegf and Angptl4 mRNA expression to levels similar to those in nondiabetic mice
Vegfa mRNA ([6]; OIR mice P17, Digoxin i.p. 2mg/kg at P12, NON-OIR about 1, replicates, Figure 2B, 2 mg/kg): 4.361 and 3.814 and 4.0024
Angpt2 mRNA [6, 8]: 1.359 and 1.263 and 1.386
Angptl4 mRNA [6, 8]: 1.389 and 1.31 and 1.599
Pdgfb mRNA [6, 8]: 3.611 and 3.067 and 2.999
Ptprb mRNA [6, 8]: 0.8633 and 0.7662 and 0.7639
Serpine1 mRNA [6, 8]: 13.6912 and 13.3012 and 10.8019
expression of VEGF in OIR mice (in words) [6, 9]: only modestly inhibiting the expression of VEGF
expression of other vasoactive genes in OIR mice (in words) [6, 9]: modest reduction

Compound: aflibercept: FDA-approved anti-VEGF therapy for DME and PDR [reference compound]
OIR NV% ([3]; 100ng i.v., individual values): 10.6252% and 10.4463% and 8.931% and 10.009% and 8.751% and 10.316%
OIR NV% ([3]; 200ng i.v., individual values): 6.75% and 9.52% and 8.9161% and 6.123% and 11.2235% and 10.084%
OIR NV% ([3]; 400ng i.v., individual values): 2.501% and 5.995% and 9.1174% and 1.799% and 6.421% and 2.903%

— publication PMC10313368 (The Journal of Clinical Investigation, 2023)
